In patent US8563741B2, “CDK inhibitors containing a zinc binding moiety” (Curis, Inc., priority 2007, dated 2013):

Key:
Type in all cases: biochemical
CDK6/cyclinD3 = target: T1, CDK6/cyclinD3 (Homo sapiens, UniProt Q00534); test: CDK activity assay with p33 ATP, CDK6/cyclinD3; conditions: 1 μM ATP; read-out: CDK6/cyclinD IC50
T1 construct: N-terminal, 6His-tagged full-length human cdk6 (MW=38 kDa); 6His (N); made in house; host or cells: Sf21 cells
Procedure: CDK6/cyclinD3 (Accession Number for CDK6; GenBank X66365, for Cyclin D3; EMBL M90814):
N-terminal, 6His-tagged full-length human cdk6 (MW=38 kDa) complexed with N-terminal GST-tagged full-length human cyclin D3 (MW=59 kDa) were expressed in Sf21 cells. Recombinant protein complex was purified using glutathione-agarose and activated with CAK, and repurified with Ni2+/NTA-agarose column. Purity was measured to be at least 68%. Specific Activity was measured to be 39 U/mg, where one unit of cdk6/cyclinD3 activity is defined as 1 nmol phosphate incorporated into 0.1 mg/ml histone H1 per minute at 30° C. with a final ATP concentration of 100 μM. Enzyme was stored at concentration of 0.1 mg/ml in 50 mM Tris-HCl, pH 7.5, 270 mM sucrose, 150 mM NaCl, 1 mM benzamidine, 0.2 mM PMSF, 0.1% 2-mercaptoethanol, 0.1 mM EGTA, 0.03% Brij 35.

CDK2/cyclinE = target: T2, CDK2/cyclinE (Homo sapiens, UniProt P24941); test: CDK activity assay with p33 ATP, CDK2/cyclinE; conditions: 1 μM ATP
T2 construct: C-terminal 6His-tagged, recombinant full-length CDK2 (MW=34 kDa); 6His (C); made in house; host or cells: Sf21 cells (baculovirus)
Procedure: CDK2/cyclinE (Accession Number for CDK2; EMBL M68520, for cyclinE1; GenBank NM_001238):
C-terminal 6His-tagged, recombinant full-length CDK2 (MW=34 kDa) in complex with N-terminal GST-tagged, recombinant full-length cyclinE1 (MW=74 kDa) were expressed with baculovirus system in Sf21 cells. Recombinant proteins were purified using Ni2+/NTA agarose and the purity of recombinant protein complex was measured to be around 76% by SDS-PAGE and Coomassie blue staining. Specific Activity of recombinant CDK2/cyclinE was 1336 U/mg, where one unit of CDK2/cylinE1 activity is defined as 1 nmol phosphate incorporated into 0.1 mg/ml histone H1 per minute at 30° C. with a final ATP concentration of 100 μM. Enzyme was stored with concentration of 0.1 mg/ml in 50 mM Tris/HCl pH 7.5, 150 mM NaCl, 0.03% Brij-35, 0.1 mM EGTA, 0.2 mM PMSF, 1 mM benzamidine, 0.1% 2-mercaptoethanol, 270 mM sucrose.

HDAC = HDAC fluorimetric assay kit (AK-500, Biomol), HeLa nuclear extract
Procedure: HDAC inhibitors were screened using an HDAC fluorimetric assay kit (AK-500, Biomol, Plymouth Meeting, Pa.). […] Each assay was setup as follows: Defrosted all kit components and kept on ice until use. Diluted HeLa nuclear extract 1:29 in Assay Buffer (50 mM Tris/Cl, pH 8.0, 137 mM NaCl, 2.7 mM KCl, 1 mM MgCl2). Prepared dilutions of Trichostatin A (TSA, positive control) and tested compounds in assay buffer (5× of final concentration). Diluted Fluor de LysTM Substrate in assay buffer to 100 uM (50 fold=2× final). Diluted Fluor de LysTM developer concentrate 20-fold (e.g. 50 μl plus 950 μl Assay Buffer) in cold assay buffer. Second, diluted the 0.2 mM Trichostatin A 100-fold in the 1× Developer (e.g. 10 μl in 1 ml; final Trichostatin A concentration in the 1× Developer=2 μM; final concentration after addition to HDAC/Substrate reaction=1 μM). Added Assay buffer, diluted trichostatin A or test inhibitor to appropriate wells of the microtiter plate. Added diluted HeLa extract or other HDAC sample to all wells except for negative controls. Allowed diluted Fluor de LysTM Substrate and the samples in the microtiter plate to equilibrate to assay temperature (e.g. 25 or 37° C. Initiated HDAC reactions by adding diluted substrate (25 μl) to each well and mixing thoroughly. Allowed HDAC reactions to proceed for 1 hour and then stopped them by addition of Fluor de LysTM Developer (50 μl). Incubated plate at room temperature (25° C.) for 10-15 min. Read samples in a microtiter-plate reading fluorimeter capable of excitation at a wavelength in the range 350-380 nm and detection of emitted light in the range 440-460 nm.

T1 sequence (Q00534 whole entry): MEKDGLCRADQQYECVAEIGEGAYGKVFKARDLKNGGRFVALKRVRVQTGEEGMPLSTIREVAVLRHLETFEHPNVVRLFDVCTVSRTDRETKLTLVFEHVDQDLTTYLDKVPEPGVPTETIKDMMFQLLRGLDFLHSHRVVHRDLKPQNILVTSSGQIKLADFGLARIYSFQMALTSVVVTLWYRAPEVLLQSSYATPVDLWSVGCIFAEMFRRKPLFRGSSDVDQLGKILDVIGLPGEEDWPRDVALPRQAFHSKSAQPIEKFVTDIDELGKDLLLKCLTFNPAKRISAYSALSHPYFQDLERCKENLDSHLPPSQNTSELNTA
T1 sequence (P30281 whole entry partner): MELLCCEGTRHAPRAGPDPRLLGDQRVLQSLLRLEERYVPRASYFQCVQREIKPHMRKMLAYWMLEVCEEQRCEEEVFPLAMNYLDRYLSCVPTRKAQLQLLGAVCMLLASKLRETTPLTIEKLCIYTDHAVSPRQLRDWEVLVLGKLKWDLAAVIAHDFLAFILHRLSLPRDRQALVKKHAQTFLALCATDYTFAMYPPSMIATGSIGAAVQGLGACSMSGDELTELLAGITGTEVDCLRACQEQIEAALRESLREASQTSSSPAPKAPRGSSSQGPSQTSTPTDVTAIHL

| Structure (SMILES) | IC50 (CDK6/cyclinD3) [nM] | IC50 (CDK2/cyclinE) [nM] | IC50 (HDAC) [nM] |
| --- | --- | --- | --- |
| CC(C)(C)c1cnc(CSc2cnc(NC(=O)CCCC(=O)NO)s2)o1 [Compound 5, N^1-(5-((5-tert-butyloxazol-2-yl)methylthio)thiazol-2-yl)-N^5-hydroxyglutaramide] | 100 to 1000 | < 100 | 100 to 1000 |
| CC(C)(C)c1cnc(CSc2cnc(NC(=O)CCCNCCC(=O)NO)s2)o1 [Compound 13, N-(5-((5-tert-butyloxazol-2-yl)methylthio)thiazol-2-yl)-4-(3-(hydroxyamino)-3-oxopropylamino)butanamide] | 100 to 1000 | < 100 | > 10000 |
| CC(C)(C)c1cnc(CSc2cnc(NC(=O)CCCCC(=O)NO)s2)o1 [Compound 6, N^1-(5-((5-tert-butyloxazol-2-yl)methylthio)-thiazol-2-yl)-N^6-hydroxyadipamide] | 100 to 1000 | < 100 | 100 to 1000 |
